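Five concentrations, 48 hours, 96-well plates. Here, GI50 denotes the concentration required for 50% inhibition of growth. TGI marks complete inhibition of growth.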
Key:
Test in all cases: NCI anticancer screen, dose series, 48 h
MCF7 breast = test system: MCF7 breast
COLO 205 colon = test system: COLO 205 colon
SK-MEL-5 melanoma = test system: SK-MEL-5 melanoma
MOLT-4 leukemia = test system: MOLT-4 leukemia
OVCAR-3 ovarian = test system: OVCAR-3 ovarian
KM12 colon = test system: KM12 colon
786-0 renal = test system: 786-0 renal
IGROV1 ovarian = test system: IGROV1 ovarian
HCT-116 colon = test system: HCT-116 colon
NCI-H226 lung = test system: NCI-H226 lung
NCI/ADR-RES ovarian = test system: NCI/ADR-RES ovarian
BT-549 breast = test system: BT-549 breast
ACHN renal = test system: ACHN renal
NCI-H522 lung = test system: NCI-H522 lung
LOX IMVI melanoma = test system: LOX IMVI melanoma
HS 578T breast = test system: HS 578T breast
T-47D breast = test system: T-47D breast
A549 NSCLC = test system: A549 NSCLC
A498 renal = test system: A498 renal
K-562 leukemia = test system: K-562 leukemia
SF-295 CNS = test system: SF-295 CNS
UO-31 renal = test system: UO-31 renal
U251 CNS = test system: U251 CNS
M14 melanoma = test system: M14 melanoma
OVCAR-8 ovarian = test system: OVCAR-8 ovarian
CCRF-CEM leukemia = test system: CCRF-CEM leukemia
DU-145 prostate = test system: DU-145 prostate
SK-OV-3 ovarian = test system: SK-OV-3 ovarian
SW-620 colon = test system: SW-620 colon
MDA-MB-231 breast = test system: MDA-MB-231 breast
OVCAR-5 ovarian = test system: OVCAR-5 ovarian
SF-539 CNS = test system: SF-539 CNS
HOP-62 NSCLC = test system: HOP-62 NSCLC
SK-MEL-28 melanoma = test system: SK-MEL-28 melanoma
HL-60(TB) leukemia = test system: HL-60(TB) leukemia
SNB-19 CNS = test system: SNB-19 CNS
RPMI-8226 leukemia = test system: RPMI-8226 leukemia
HT29 colon = test system: HT29 colon
SK-MEL-2 melanoma = test system: SK-MEL-2 melanoma
HCT-15 colon = test system: HCT-15 colon
NCI-H460 lung = test system: NCI-H460 lung
SNB-75 CNS = test system: SNB-75 CNS
SF-268 CNS = test system: SF-268 CNS
CAKI-1 renal = test system: CAKI-1 renal
PC-3 prostate = test system: PC-3 prostate
MDA-MB-435 = test system: MDA-MB-435
OVCAR-4 ovarian = test system: OVCAR-4 ovarian
NCI-H23 lung = test system: NCI-H23 lung
SN12C renal = test system: SN12C renal
UACC-257 melanoma = test system: UACC-257 melanoma

**Q.** For O=C1C(=O)/C(=C/c2ccccc2)CCCCCC/C1=C/c1ccccc1, which GI50 (MCF7 breast) is on record?
**A.** 3.24 µM

**Q.** What about the TGI (MCF7 breast) of the same compound?
**A.** 31.8 µM

**Q.** What about the GI50 (COLO 205 colon) of the same compound?
**A.** 10.1 µM

**Q.** And the TGI (COLO 205 colon)?
**A.** 32.6 µM

**Q.** What about the GI50 (SK-MEL-5 melanoma) of the same compound?
**A.** 3.25 µM

**Q.** What about the TGI (SK-MEL-5 melanoma) of the same compound?
**A.** 12.1 µM

**Q.** And the GI50 (MOLT-4 leukemia)?
**A.** 3.17 µM

**Q.** What about the TGI (MOLT-4 leukemia) of the same compound?
**A.** 10.7 µM

**Q.** And the GI50 (OVCAR-3 ovarian)?
**A.** 1920 nM

**Q.** And the TGI (OVCAR-3 ovarian)?
**A.** 3.63 µM

**Q.** And the GI50 (KM12 colon)?
**A.** 2700 nM

**Q.** What about the TGI (KM12 colon) of the same compound?
**A.** 6.4 µM

**Q.** And the GI50 (786-0 renal)?
**A.** 1820 nM

**Q.** What about the TGI (786-0 renal) of the same compound?
**A.** 3.33 µM

**Q.** What about the GI50 (IGROV1 ovarian) of the same compound?
**A.** 2930 nM

**Q.** What about the TGI (IGROV1 ovarian) of the same compound?
**A.** 8.7 µM

**Q.** And the GI50 (HCT-116 colon)?
**A.** 1500 nM

**Q.** And the TGI (HCT-116 colon)?
**A.** 2820 nM

**Q.** And the GI50 (NCI-H226 lung)?
**A.** 1760 nM

**Q.** What about the TGI (NCI-H226 lung) of the same compound?
**A.** 3.54 µM

**Q.** And the GI50 (NCI/ADR-RES ovarian)?
**A.** 4.78 µM

**Q.** What about the TGI (NCI/ADR-RES ovarian) of the same compound?
**A.** > 100 µM

**Q.** And the GI50 (BT-549 breast)?
**A.** 2330 nM

**Q.** And the TGI (BT-549 breast)?
**A.** 5 µM

**Q.** What about the GI50 (ACHN renal) of the same compound?
**A.** 2570 nM

**Q.** And the TGI (ACHN renal)?
**A.** 6.5 µM

**Q.** And the GI50 (NCI-H522 lung)?
**A.** 4.68 µM

**Q.** And the TGI (NCI-H522 lung)?
**A.** 16.3 µM

**Q.** What about the GI50 (LOX IMVI melanoma) of the same compound?
**A.** 1820 nM

**Q.** What about the TGI (LOX IMVI melanoma) of the same compound?
**A.** 3.53 µM

**Q.** What about the GI50 (HS 578T breast) of the same compound?
**A.** 8.06 µM

**Q.** What about the TGI (HS 578T breast) of the same compound?
**A.** > 100 µM

**Q.** And the GI50 (T-47D breast)?
**A.** 5.09 µM

**Q.** What about the TGI (T-47D breast) of the same compound?
**A.** > 100 µM

**Q.** And the GI50 (A549 NSCLC)?
**A.** 2330 nM

**Q.** What about the TGI (A549 NSCLC) of the same compound?
**A.** 7.16 µM

**Q.** What about the GI50 (A498 renal) of the same compound?
**A.** 13.7 µM

**Q.** What about the TGI (A498 renal) of the same compound?
**A.** 28.4 µM

**Q.** What about the GI50 (K-562 leukemia) of the same compound?
**A.** 2940 nM

**Q.** And the TGI (K-562 leukemia)?
**A.** 8.77 µM

**Q.** And the GI50 (SF-295 CNS)?
**A.** 2580 nM

**Q.** And the TGI (SF-295 CNS)?
**A.** 7 µM

**Q.** And the GI50 (UO-31 renal)?
**A.** 1890 nM

**Q.** And the TGI (UO-31 renal)?
**A.** 3.88 µM

**Q.** And the GI50 (U251 CNS)?
**A.** 1620 nM

**Q.** What about the TGI (U251 CNS) of the same compound?
**A.** 2970 nM

**Q.** And the GI50 (M14 melanoma)?
**A.** 2290 nM

**Q.** And the TGI (M14 melanoma)?
**A.** 5.31 µM

**Q.** What about the GI50 (OVCAR-8 ovarian) of the same compound?
**A.** 3.14 µM

**Q.** And the TGI (OVCAR-8 ovarian)?
**A.** 12.7 µM

**Q.** What about the GI50 (CCRF-CEM leukemia) of the same compound?
**A.** 3.05 µM

**Q.** What about the TGI (CCRF-CEM leukemia) of the same compound?
**A.** 17.9 µM

**Q.** What about the GI50 (DU-145 prostate) of the same compound?
**A.** 3.73 µM

**Q.** And the TGI (DU-145 prostate)?
**A.** 14 µM

**Q.** What about the GI50 (SK-OV-3 ovarian) of the same compound?
**A.** 8.9 µM

**Q.** What about the TGI (SK-OV-3 ovarian) of the same compound?
**A.** 70.3 µM

**Q.** And the GI50 (SW-620 colon)?
**A.** 3.21 µM

**Q.** What about the TGI (SW-620 colon) of the same compound?
**A.** 11.6 µM

**Q.** And the GI50 (MDA-MB-231 breast)?
**A.** 2630 nM

**Q.** And the TGI (MDA-MB-231 breast)?
**A.** 6.52 µM

**Q.** And the GI50 (OVCAR-5 ovarian)?
**A.** 2680 nM

**Q.** What about the TGI (OVCAR-5 ovarian) of the same compound?
**A.** 7.93 µM

**Q.** What about the GI50 (SF-539 CNS) of the same compound?
**A.** 1980 nM

**Q.** And the TGI (SF-539 CNS)?
**A.** 3.95 µM

**Q.** And the GI50 (HOP-62 NSCLC)?
**A.** 3.44 µM

**Q.** What about the TGI (HOP-62 NSCLC) of the same compound?
**A.** 10.5 µM

**Q.** What about the GI50 (SK-MEL-28 melanoma) of the same compound?
**A.** 3.9 µM

**Q.** What about the TGI (SK-MEL-28 melanoma) of the same compound?
**A.** 15.4 µM

**Q.** What about the GI50 (HL-60(TB) leukemia) of the same compound?
**A.** 2960 nM

**Q.** And the TGI (HL-60(TB) leukemia)?
**A.** 8.87 µM

**Q.** And the GI50 (SNB-19 CNS)?
**A.** 5.3 µM

**Q.** And the TGI (SNB-19 CNS)?
**A.** 20.2 µM

**Q.** What about the GI50 (RPMI-8226 leukemia) of the same compound?
**A.** 1900 nM

**Q.** And the TGI (RPMI-8226 leukemia)?
**A.** 5.96 µM

**Q.** What about the GI50 (HT29 colon) of the same compound?
**A.** 2040 nM

**Q.** And the TGI (HT29 colon)?
**A.** 3.74 µM

**Q.** And the GI50 (SK-MEL-2 melanoma)?
**A.** 16.6 µM

**Q.** And the TGI (SK-MEL-2 melanoma)?
**A.** 34.4 µM

**Q.** What about the GI50 (HCT-15 colon) of the same compound?
**A.** 1680 nM

**Q.** And the TGI (HCT-15 colon)?
**A.** 3.24 µM

**Q.** And the GI50 (NCI-H460 lung)?
**A.** 2430 nM

**Q.** And the TGI (NCI-H460 lung)?
**A.** 6.09 µM

**Q.** And the GI50 (SNB-75 CNS)?
**A.** 2860 nM

**Q.** What about the TGI (SNB-75 CNS) of the same compound?
**A.** 17.6 µM

**Q.** What about the GI50 (SF-268 CNS) of the same compound?
**A.** 2740 nM

**Q.** What about the TGI (SF-268 CNS) of the same compound?
**A.** 8.28 µM

**Q.** What about the GI50 (CAKI-1 renal) of the same compound?
**A.** 3.11 µM

**Q.** What about the TGI (CAKI-1 renal) of the same compound?
**A.** 18.6 µM

**Q.** What about the GI50 (PC-3 prostate) of the same compound?
**A.** 3.19 µM

**Q.** What about the TGI (PC-3 prostate) of the same compound?
**A.** 17.1 µM

**Q.** And the GI50 (MDA-MB-435)?
**A.** 2210 nM

**Q.** And the TGI (MDA-MB-435)?
**A.** 5.05 µM

**Q.** And the GI50 (OVCAR-4 ovarian)?
**A.** 2780 nM

**Q.** What about the TGI (OVCAR-4 ovarian) of the same compound?
**A.** 8.47 µM

**Q.** What about the GI50 (NCI-H23 lung) of the same compound?
**A.** 3.38 µM

**Q.** What about the TGI (NCI-H23 lung) of the same compound?
**A.** 13.7 µM

**Q.** And the GI50 (SN12C renal)?
**A.** 2350 nM

**Q.** And the TGI (SN12C renal)?
**A.** 5.58 µM

**Q.** What about the GI50 (UACC-257 melanoma) of the same compound?
**A.** 2300 nM

**Q.** What about the TGI (UACC-257 melanoma) of the same compound?
**A.** 6.15 µM

Source: PubChem BioAssay (NCI)
